For four compounds, IC50 results are on record in ChEMBL document CHEMBL1201862, “PubChem BioAssay data set” (2004).

What all share (format): functional
Test [1] has as its target T1, Sentrin-specific protease 8 (Homo sapiens, UniProt Q96LD8).
T1 sequence (Q96LD8 whole entry): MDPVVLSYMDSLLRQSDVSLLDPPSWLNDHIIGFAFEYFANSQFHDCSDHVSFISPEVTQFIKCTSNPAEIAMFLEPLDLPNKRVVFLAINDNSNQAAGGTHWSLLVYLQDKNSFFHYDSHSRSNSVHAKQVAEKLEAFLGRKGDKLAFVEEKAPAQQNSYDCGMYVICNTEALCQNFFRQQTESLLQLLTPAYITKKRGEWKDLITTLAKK
Briefly: SENP8 protease inhibitors, SAR follow-up, biochemical, luminescence (AID 504501).

For a further test, the target named is T2, Protein skinhead-1 (Caenorhabditis elegans, UniProt P34707).
T2 sequence (P34707 whole entry): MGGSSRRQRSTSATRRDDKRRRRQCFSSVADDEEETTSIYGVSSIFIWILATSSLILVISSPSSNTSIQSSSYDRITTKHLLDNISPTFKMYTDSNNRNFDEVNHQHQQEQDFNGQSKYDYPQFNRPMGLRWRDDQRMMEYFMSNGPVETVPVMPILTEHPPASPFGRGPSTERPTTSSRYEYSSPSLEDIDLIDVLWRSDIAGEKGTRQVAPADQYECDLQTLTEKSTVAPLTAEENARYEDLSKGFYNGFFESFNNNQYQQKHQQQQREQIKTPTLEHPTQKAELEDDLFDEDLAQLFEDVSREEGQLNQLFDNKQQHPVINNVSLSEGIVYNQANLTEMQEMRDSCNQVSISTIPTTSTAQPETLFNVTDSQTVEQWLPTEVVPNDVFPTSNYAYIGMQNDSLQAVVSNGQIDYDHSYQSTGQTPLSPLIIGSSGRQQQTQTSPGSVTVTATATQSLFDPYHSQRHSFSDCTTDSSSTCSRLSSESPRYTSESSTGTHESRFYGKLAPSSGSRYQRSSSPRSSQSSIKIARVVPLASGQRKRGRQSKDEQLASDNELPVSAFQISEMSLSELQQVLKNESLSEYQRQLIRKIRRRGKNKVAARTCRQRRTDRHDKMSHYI

In the next test the target is T3, Caspase-3 (Homo sapiens, UniProt P42574).
T3 sequence (P42574 whole entry): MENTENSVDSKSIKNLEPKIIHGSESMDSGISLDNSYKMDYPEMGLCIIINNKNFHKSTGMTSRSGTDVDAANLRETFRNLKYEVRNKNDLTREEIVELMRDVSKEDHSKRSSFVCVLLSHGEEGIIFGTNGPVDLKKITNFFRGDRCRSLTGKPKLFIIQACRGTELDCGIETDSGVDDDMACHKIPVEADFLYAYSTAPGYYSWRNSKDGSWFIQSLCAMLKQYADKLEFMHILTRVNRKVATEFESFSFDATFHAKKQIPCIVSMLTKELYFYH
Briefly: SAR Analysis of small molecule inhibitors of Sentrin-specific proteases (SENPs) using a Caspase-3 Selectivity assay. [Related pubchem assays (depositor defined):AID2540, AID2599, AID434973, AID489001].

In test [2] the target is T4, Sentrin-specific protease 6 (Homo sapiens, UniProt Q9GZR1).
T4 sequence (Q9GZR1 whole entry): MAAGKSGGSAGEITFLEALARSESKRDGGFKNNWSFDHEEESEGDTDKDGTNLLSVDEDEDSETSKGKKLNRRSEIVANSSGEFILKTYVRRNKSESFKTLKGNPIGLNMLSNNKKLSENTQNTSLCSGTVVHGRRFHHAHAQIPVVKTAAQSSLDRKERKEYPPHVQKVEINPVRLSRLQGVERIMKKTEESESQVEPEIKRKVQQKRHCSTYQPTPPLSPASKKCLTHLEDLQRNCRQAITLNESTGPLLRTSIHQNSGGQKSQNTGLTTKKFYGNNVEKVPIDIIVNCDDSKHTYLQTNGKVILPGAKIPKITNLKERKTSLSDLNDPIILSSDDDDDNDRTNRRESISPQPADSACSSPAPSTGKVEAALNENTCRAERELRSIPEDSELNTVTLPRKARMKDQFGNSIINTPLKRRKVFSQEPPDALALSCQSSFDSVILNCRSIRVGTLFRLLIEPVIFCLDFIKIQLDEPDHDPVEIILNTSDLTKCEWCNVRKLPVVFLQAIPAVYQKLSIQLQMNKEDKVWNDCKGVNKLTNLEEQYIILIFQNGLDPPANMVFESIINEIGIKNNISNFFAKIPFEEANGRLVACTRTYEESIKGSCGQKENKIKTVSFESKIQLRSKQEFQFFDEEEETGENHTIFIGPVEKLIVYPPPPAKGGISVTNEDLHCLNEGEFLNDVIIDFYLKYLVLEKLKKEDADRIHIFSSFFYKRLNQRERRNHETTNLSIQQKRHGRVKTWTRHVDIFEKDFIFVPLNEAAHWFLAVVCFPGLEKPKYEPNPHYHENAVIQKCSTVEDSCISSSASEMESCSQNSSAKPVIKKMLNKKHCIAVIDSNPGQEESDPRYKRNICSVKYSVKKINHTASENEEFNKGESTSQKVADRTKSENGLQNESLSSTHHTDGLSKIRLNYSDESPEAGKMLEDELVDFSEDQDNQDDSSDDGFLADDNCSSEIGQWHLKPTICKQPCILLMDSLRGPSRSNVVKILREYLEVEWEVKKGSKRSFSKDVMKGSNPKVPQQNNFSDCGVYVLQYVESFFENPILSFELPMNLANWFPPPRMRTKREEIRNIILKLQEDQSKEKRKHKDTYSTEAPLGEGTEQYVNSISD
The test is described as follows: SAR Analysis of small molecule inhibitors of Sentrin-specific protease 6 (SENP6) using a Luminescent assay. [Related pubchem assays (depositor defined):AID2582, AID2599].

Test [3] concerns the target T5, Sentrin-specific protease 7 (Homo sapiens, UniProt Q9BQF6).
T5 sequence (Q9BQF6 whole entry): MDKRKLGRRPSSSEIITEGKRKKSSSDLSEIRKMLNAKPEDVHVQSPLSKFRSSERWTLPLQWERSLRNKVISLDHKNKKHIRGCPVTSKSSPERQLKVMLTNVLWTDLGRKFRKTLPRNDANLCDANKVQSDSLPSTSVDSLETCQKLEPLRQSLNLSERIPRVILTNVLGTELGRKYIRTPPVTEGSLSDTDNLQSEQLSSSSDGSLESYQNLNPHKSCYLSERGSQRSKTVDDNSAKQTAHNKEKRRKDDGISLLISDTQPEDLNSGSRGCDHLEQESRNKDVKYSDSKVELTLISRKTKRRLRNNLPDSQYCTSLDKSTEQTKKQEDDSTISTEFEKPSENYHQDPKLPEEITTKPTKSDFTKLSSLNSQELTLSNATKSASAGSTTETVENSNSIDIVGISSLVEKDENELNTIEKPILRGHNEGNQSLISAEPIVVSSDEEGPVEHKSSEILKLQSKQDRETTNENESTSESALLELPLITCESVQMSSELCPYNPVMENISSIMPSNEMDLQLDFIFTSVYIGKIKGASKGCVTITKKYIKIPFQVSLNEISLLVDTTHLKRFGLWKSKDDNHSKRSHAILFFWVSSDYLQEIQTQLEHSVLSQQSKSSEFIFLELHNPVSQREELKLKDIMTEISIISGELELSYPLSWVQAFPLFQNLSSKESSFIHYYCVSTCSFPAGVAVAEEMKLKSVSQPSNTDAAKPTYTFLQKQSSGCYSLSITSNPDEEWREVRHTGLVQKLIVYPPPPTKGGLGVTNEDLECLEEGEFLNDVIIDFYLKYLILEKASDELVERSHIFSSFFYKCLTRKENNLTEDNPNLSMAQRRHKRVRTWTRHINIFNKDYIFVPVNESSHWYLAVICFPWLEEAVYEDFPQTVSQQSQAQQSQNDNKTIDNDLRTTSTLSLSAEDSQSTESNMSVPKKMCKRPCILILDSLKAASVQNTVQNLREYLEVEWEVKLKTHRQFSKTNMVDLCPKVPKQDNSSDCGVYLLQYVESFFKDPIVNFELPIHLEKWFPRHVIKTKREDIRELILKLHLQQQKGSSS
Briefly: SENP7 protease inhibitors, SAR follow-up, biochemical, luminescence (AID 504497).

Test [4] is described as follows: Counterscreen for antagonists of the orexin 1 receptor (OX1R; HCRTR1): Fluorescence-based cell-based high throughput dose response assay to identify antagonists of the parental CHO cell line. [Related pubchem assays (depositor defined):AID434989, AID435008, AID463079, AID485270, AID492963, AID492964, AID492965, AID493232, AID504699, AID504701].
Test [5] has as its target T6, Orexin receptor type 2 (Homo sapiens, UniProt O43614).
T6 sequence (O43614 whole entry): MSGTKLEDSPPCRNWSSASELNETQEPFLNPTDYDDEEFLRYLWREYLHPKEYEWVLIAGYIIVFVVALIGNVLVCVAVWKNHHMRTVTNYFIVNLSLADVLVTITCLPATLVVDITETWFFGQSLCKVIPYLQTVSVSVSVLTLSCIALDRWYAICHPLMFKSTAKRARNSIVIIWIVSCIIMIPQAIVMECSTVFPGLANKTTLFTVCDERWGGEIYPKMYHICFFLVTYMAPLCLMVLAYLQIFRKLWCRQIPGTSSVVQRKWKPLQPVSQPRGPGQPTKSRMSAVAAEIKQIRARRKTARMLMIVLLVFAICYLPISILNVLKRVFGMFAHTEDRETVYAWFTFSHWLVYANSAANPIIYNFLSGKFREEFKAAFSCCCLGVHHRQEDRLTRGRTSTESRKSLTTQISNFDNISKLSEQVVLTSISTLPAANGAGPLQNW
The test is described as follows: Counterscreen assay for antagonists of the orexin 1 receptor (OX1R; HCRTR1): Fluorescence-based cell-based dose response assay for antagonists of the orexin 2 receptor (OX2R; HCRTR2), run by assay provider. A general note: Counterscreens check selectivity or assay interference.

Test [6] has as its target T7, Orexin/Hypocretin receptor type 1 (Homo sapiens, UniProt O43613).
T7 sequence (O43613 whole entry): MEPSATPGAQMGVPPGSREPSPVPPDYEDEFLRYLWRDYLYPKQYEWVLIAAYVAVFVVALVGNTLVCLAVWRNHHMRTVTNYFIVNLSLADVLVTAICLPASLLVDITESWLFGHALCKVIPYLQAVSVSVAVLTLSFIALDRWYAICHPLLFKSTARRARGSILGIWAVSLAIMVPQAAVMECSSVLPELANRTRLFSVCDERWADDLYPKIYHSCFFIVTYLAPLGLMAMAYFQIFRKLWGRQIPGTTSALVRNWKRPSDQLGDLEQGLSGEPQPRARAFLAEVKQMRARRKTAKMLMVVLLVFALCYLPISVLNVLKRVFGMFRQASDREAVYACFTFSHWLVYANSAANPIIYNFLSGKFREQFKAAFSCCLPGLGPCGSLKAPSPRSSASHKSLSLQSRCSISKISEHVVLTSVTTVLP
The test is described as follows: Fluorescence-based cell-based high throughput dose response assay for antagonists of the orexin 1 receptor (OX1R; HCRTR1). [Related pubchem assays (depositor defined):AID434989, AID435008, AID463079, AID485270, AID492963, AID492964, AID492965, AID493232, AID504717, AID504718].

In test [7] the target is T6, Orexin receptor type 2. Briefly: Counterscreen assay for antagonists of the orexin 1 receptor (OX1R; HCRTR1): Homogeneous Time Resolved Fluorescence (HTRF)-based cell-based dose response assay for antagonists of the orexin 2 receptor (OX2R; HCRTR2), run by assay provider.
In test [8] the target is T7, Orexin/Hypocretin receptor type 1. Briefly: Homogeneous Time Resolved Fluorescence (HTRF)-based cell-based high throughput dose response assay for antagonists of the orexin 1 receptor (OX1R; HCRTR1). [Related pubchem assays (depositor defined):AID434989, AID435008, AID463079, AID485270, AID492963, AID492964, AID492965, AID493232, AID504717, AID504718]. A general note: In TR-FRET formats the signal depends on donor and acceptor labels being close together.

Another test deals with CHO-K1. The test is described as follows: Counterscreen for antagonists of the orexin 1 receptor (OX1R; HCRTR1): Homogeneous time resolved fluorescence (HTRF)-based cell-based dose response assay to identify antagonists of the parental CHO-K1 cell line. [Related pubchem assays (depositor defined):AID434989, AID435008, AID463079, AID485270, AID492963, AID492964, AID492965, AID493232, AID504699, AID504701]. The following applies: Cricetulus griseus.

A word on the IC50: it is the concentration that gives 50% inhibition.

Calls of active or inactive are those of the source.

As to `Fc1ccc(/C=C/c2nnc(-c3cccs3)o2)cc1`, the IC50 in test [1] is 47 µM (active); at Protein skinhead-1, > 100 µM (inactive); on Caspase-3, 6.4 µM (active); in test [2], 39 µM (active); in test [3], 4.3 µM (active).
For the compound `COc1ccc(NC(=O)C(=O)Nc2cccc3cccnc23)cc1OC`, the IC50 in test [4] was > 49.8 µM (inactive); at Orexin receptor type 2 [5], > 88.8 µM (inactive); in test [6] it was 1.34 µM (active); at Orexin receptor type 2 [7], > 50 µM (inactive); in test [8], 0.475 µM (active); with CHO-K1 it was > 66.2 µM (inactive).
In the case of `C/C(=C\c1ccccc1)c1nc(-c2cccc(C(F)(F)F)c2)no1`, the IC50 (in test [1]; on Caspase-3; in test [2]; in test [3]) was > 99 µM (inactive) in each case.
Turning to `O=C(Nc1nc2c(Br)cccc2s1)c1ccc2c(c1)OCCO2`, the IC50 was 5.3 µM (active) in test [1], 13 µM (active) at Caspase-3, 4.5 µM (active) in test [2] and 2.6 µM (active) in test [3].
